Literature values, collected in patent US7858592B2, “Interfering RNAs against the promoter region of P53” (The Board of Regents of the University of Texas System, priority 2007, dated 2010).
Where a name gives a salt, the structure may show the parent alone.

Assays:
[1] = not given; remark: listed apart in the source
[2] = not given; remark: listed apart in the source

## CC[C@@]1(O)C(=O)OCc2c1cc1n(c2=O)Cc2cc3ccccc3nc2-1 [Camptothecin]
other
  solubility in water: poor water-solubility

## O.O=P1(N(CCCl)CCCl)NCCCO1 (stereo not drawn) [Cyclophosphamide, 2H-1,3,2-Oxazaphosphorin-2-amine, N,N-bis(2-chloroethyl)tetrahydro-, 2-oxide, monohydrate]
[1]; oral and parental routes
  local tolerability: does not cause local vesication, necrosis, phlebitis or even pain

## COc1cccc2c1C(=O)c1c(O)c3c(c(O)c1C2=O)C[C@@](O)(C(=O)CO)C[C@@H]3O[C@H]1C[C@H](N)[C@H](O)[C@H](C)O1 [Doxorubicin, 5,12-Naphthacenedione, (8s-cis)-10-[(3-amino-2,3,6-trideoxy-a-L-lyxo-hexopyranosyl)oxy]-7,8,9,10-tetrahydro-6,8,11-trihydroxy-8-(hydroxyacetyl)-1-methoxy-hydrochloride]
[2]; in vivo
  excreted into the urine: a few percent

## O=NN(CCCl)C(=O)NC1CCCCC1 [Lomustine, 1-(2-chloro-ethyl)-3-cyclohexyl-1 nitrosourea]
[2]; 15 minutes after intravenous administration
  tissue levels versus plasma levels: comparable to plasma levels

## CC[C@]1(O)C[C@H]2CN(CCc3c([nH]c4ccccc34)[C@@](C(=O)OC)(c3cc4c(cc3OC)N(C=O)[C@H]3[C@@](O)(C(=O)OC)[C@H](OC(C)=O)[C@]5(CC)C=CCN6CC[C@]43[C@@H]65)C2)C1 [Vincristine]
[1]; in vivo
  toxicity for normal marrow cells and epithelial cells: relatively low toxicity

## N[C@H](Cc1ccc(N(CCCl)CCCl)cc1)C(=O)O [medphalan]
Certain animal tumors
  activity relative to the L-isomer: less active
